These results are taken from ChEMBL document CHEMBL1134585, “New 3'-azido-3'-deoxythymidin-5'-yl O-(4-hydroxyalkyl or -alkenyl or -alkylepoxide) carbonate prodrugs: synthesis and anti-HIV evaluation” (J Med Chem, 2001).

Molecules are shown by their SMILES.

The species named for series [1] is Homo sapiens. Briefly: Conc. required to cause 50% death of uninfected PBMCs. Format: functional.
Series [2] in a line: half life time required for 50% hydrolysis of prodrugs to AZT at 37 degrees upon incubation in Phosphate buffer saline(PBS), (8% of AZT was released). Type of series: ADME.
Series [3] is filed under the species Homo sapiens. Briefly: Conc. required to inhibit HIV-1 replication on PBMCs by 50%. Type of series: functional, organism-based.
The test system of series [4] is MT4. Briefly: Conc. required to inhibit the cytopathicity on HIV-1 by 50% on MT-4 cells. Conditions: Homo sapiens. Type of series: functional, cell-based. A general note: Protection from cytopathic effect is a common read-out in antiviral testing.
Series [5] concerns MT4. Briefly: Conc. required to cause 50% death of uninfected MT-4 cells. The following applies: Homo sapiens. Format: functional.
A short description of series [6]: Partition coefficient (logP). Format: physicochemical. Conditions: octanol/water.
The nature of series [7]: half life time required for 50% hydrolysis of prodrugs to AZT at 37 degrees upon incubation in normal human serum(NHS). Format: ADME.
Series [8] can be described thus: half life time required for 50% hydrolysis of prodrugs to AZT at 37 degrees upon incubation in Phosphate buffer saline(PBS), (8 % of AZT was released). Type of series: ADME.
Series [9] can be described thus: half life time required for 50% hydrolysis of prodrugs to AZT at 37 degrees upon incubation in Phosphate buffer saline(PBS), (0% of AZT was released). Format: ADME.
A short description of series [10]: half life time required for 50% hydrolysis of prodrugs to AZT at 37 degrees upon incubation in Phosphate buffer saline(PBS), (6% of AZT was released). Format: ADME.
Series [11] has as its system MT4. Briefly: Conc. required to inhibit the cytopathicity of HIV-1 by 50% on MT-4 cells. Type of series: functional, cell-based. Conditions: Homo sapiens.
The nature of series [12]: half life time required for 50% hydrolysis of prodrugs to AZT at 37 degrees upon incubation in Phosphate buffer saline(PBS), (% of AZT was released). Format: ADME.

As to `Cc1cn([C@H]2C[C@H](N=[N+]=[N-])[C@@H](COC(=O)OC/C=C\CO)O2)c(=O)[nH]c1=O`, the CC50 in the series filed under Homo sapiens [1] was greater than 20000 nM; in the series on MT4 [5], 179000 nM. The T1/2 in series [2] was greater than 1440 min; in series [7], 45 min. Also, the figures for the EC50 in the series listed under Homo sapiens [3] and with MT4 [4] were 52 nM and 18 nM, respectively. Moreover, the logP in series [6] was found to be 0.59.
With `Cc1cn([C@H]2C[C@H](N=[N+]=[N-])[C@@H](COC(=O)OC[C@H]3O[C@H]3CO)O2)c(=O)[nH]c1=O`, the CC50 was greater than 20000 nM in the series listed under Homo sapiens [1] and 159000 nM in the series with MT4 [5]. Moreover, the EC50 in the series listed under Homo sapiens [3] was determined as 103 nM; with MT4 [4], 13 nM. The values for the T1/2 in series [8] and in series [7] were greater than 1440 min and 80 min, respectively. This molecule also returned a logP in series [6] of 0.47.
Consider `Cc1cn(C2CC(N=[N+]=[N-])C(COC(=O)OCCCCCCO)O2)c(=O)[nH]c1=O` (centres undefined), for which the T1/2 in series [7] is recorded as 7 min.
With `CCCCOC(=O)OCC1OC(n2cc(C)c(=O)[nH]c2=O)CC1N=[N+]=[N-]` (centres undefined), the values for the T1/2 in series [7] and in [9] were 9 min and greater than 1440 min, respectively.
For `Cc1cn(C2CC(N=[N+]=[N-])C(COC(=O)OCCCO)O2)c(=O)[nH]c1=O` (centres undefined), the T1/2 in [7] is listed as 10 min.
Regarding `Cc1cn(C2CC(N=[N+]=[N-])C(COC(=O)OCCCCO)O2)c(=O)[nH]c1=O` (centres undefined), the CC50 in the series filed under Homo sapiens [1] was greater than 20000 nM; in the series on MT4 [5] it was 262000 nM. Besides, the figures for the EC50 in the series filed under Homo sapiens [3] and in the series with MT4 [4] were 31 nM and 6 nM, respectively. Besides, the T1/2 in series [10] is on record as greater than 1440 min; in series [7], 30 min.
For the molecule `Cc1cn(C2CC(N=[N+]=[N-])C(COC(=O)OCCCCCO)O2)c(=O)[nH]c1=O` (centres undefined), in series [7], the T1/2 is 16 min.
Same read-out and setting: then `Cc1cn(C2CC(N=[N+]=[N-])C(COC(=O)OCCCCCCCCO)O2)c(=O)[nH]c1=O` (centres undefined), with 2 min.
With `Cc1cn([C@H]2C[C@H](N=[N+]=[N-])[C@@H](COC(=O)OC/C=C/CO)O2)c(=O)[nH]c1=O`, the CC50 in the series filed under Homo sapiens [1] is greater than 20000 nM; with MT4 [5], 162000 nM. Further, the EC50 in the series listed under Homo sapiens [3] was 66 nM; with MT4 [11], 8 nM. Moreover, the T1/2 in series [12] is reported as greater than 1440 min; in [7] it was 26 min. This molecule also gave a logP in series [6] of -0.59.
Take `Cc1cn(C2CC(N=[N+]=[N-])C(COC(=O)OCCO)O2)c(=O)[nH]c1=O` (centres undefined): in [7], the T1/2 is on record as less than 1 min.
As for `Cc1cn([C@H]2C[C@H](N=[N+]=[N-])[C@@H](CO)O2)c(=O)[nH]c1=O` [ZIDOVUDINE], the figures for the CC50 in the series filed under Homo sapiens [1] and in the series on MT4 [5] were 15000 nM and 42000 nM, respectively. Further, the EC50 came to 56 nM in the series filed under Homo sapiens [3] and 12 nM with MT4 [4]. Besides, in series [6], the logP is 0.88.

Broadly, the EC50 is the concentration needed to bring the measured effect to its halfway point. A lower EC50 goes with higher potency in that assay. The term logP denotes the decadic logarithm of the partition coefficient of the neutral form, usually between octanol and water. A low value points to lower lipophilicity.
